In PMC12670313 (ACS Central Science, 2025):

What was measured:
r(CUG)12–MBNL1 complex = biological target: T1, r(CUG)12–MBNL1 complex (Homo sapiens, UniProt Q9NR56); test: In vitro TR-FRET r(CUG) repeat–MBNL1 displacement assay; type: biochemical; settings: for IC50: biotinylated r(CUG)12 160 nM, MBNL1–His6 120 nM; for disruption of r(CUG)12–MBNL1 complex: 50 μM (highest tested concentration)
T1 sequence (Q9NR56 1-388): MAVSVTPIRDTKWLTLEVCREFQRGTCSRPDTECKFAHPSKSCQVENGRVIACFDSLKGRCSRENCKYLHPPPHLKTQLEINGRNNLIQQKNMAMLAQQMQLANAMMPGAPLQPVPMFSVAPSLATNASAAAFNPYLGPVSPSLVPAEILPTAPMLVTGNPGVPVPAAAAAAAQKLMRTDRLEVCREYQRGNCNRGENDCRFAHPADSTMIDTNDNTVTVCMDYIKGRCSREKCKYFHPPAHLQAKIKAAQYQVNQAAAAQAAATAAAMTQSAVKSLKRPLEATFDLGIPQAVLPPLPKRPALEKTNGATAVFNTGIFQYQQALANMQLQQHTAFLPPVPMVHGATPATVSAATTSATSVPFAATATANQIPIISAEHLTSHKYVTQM
Method: Complex formation between r(CUG) repeats and MBNL1 in vitro was measured using a previously reported time-resolved fluorescence resonance energy transfer (TR-FRET) assay. Briefly, 5′-biotinylated r(CUG)12 was folded by heating at 95 °C for 2 min in 1.5× TR-FRET Folding Buffer (30 mM HEPES-NaOH, pH 7.5, 165 mM KCl, 15 mM NaCl) and then snap cooling on ice for at least 10 min. The folded RNA was incubated with test compounds for 30 min at room temperature with the buffer adjusted to 1× Assay Buffer (20 mM HEPES, pH 7.5, 110 mM KCl, 10 mM NaCl, 2 mM MgCl2, 2 mM CaCl2, 5 mM dithiothreitol (DTT), 0.1% (w/v) BSA, and 0.05% (v/v) Tween-20) during compound addition. Following this incubation, r(CUG)12 RNA (final concentration: 160 nM) was added to MBNL1-containing samples (MBNL1 final concentration: 120 nM), or vice versa, and the reaction was incubated for an additional 15 min at room temperature. To establish maximum TR-FRET (no small molecule control), samples were prepared with r(CUG)12 and MBNL1 but without test compounds. To determine minimum TR-FRET, samples were prepared without MBNL1, replacing the volume of the protein solution added with 1× TR-FRET Assay Buffer. To detect RNA–MBNL1 complex formation, Streptavidin-XL665 (Revvity, catalog #610SAXLF) and Tb-Anti-His6 antibody (Revvity, catalog #61HISTLF) were added to final concentrations of 80 nM and 0.88 ng/μL. Samples were incubated for 30 min at room temperature before measuring TR-FRET.
TR-FRET was measured using a Molecular Devices SpectraMax M5 plate reader in time-resolved fluorescence mode, with a delay time of 200 μs and an integration time of 1500 μs. Fluorescence intensity was acquired at two emission wavelengths: 545 nm (for the Anti-His6-Terbium signal) and 665 nm (for the FRET signal to Streptavidin-XL665), both with an excitation wavelength of 345 nm and a cutoff filter of 420 nm. The TR-FRET ratio, calculated as the […], was used to quantify the interaction between MBNL1 and r(CUG)12. TR-FRET inhibition rate was calculated using eq : 4 Inhibitionrate=TR‐FRETmaximum−TR‐FRETsample/TR‐FRETmaximum−TR‐FRETminimum×100%
The IC50 (half-maximal inhibitory concentration) is calculated by fitting the dose–response curve to a four-parameter logistic (4PL) equation, commonly used in inhibition assays: 5 Inhibitionrate=100/1+10^(logIC50−concentration)×HillSlope

MBNL1 protein expression = MBNL1 protein expression by Western blot in DM1 patient-derived myotubes; type: cell-based, human; settings: 50 μM
[1] = system: r(CUG)2, NMR construct with two 1 × 1 UU internal loops (RNA, repeat) GACCUGCUGGUGAAAACCUGCUGGUC; test: 1D 1H imino NMR; settings: 50 mM NaCl; 5 mM potassium phosphate pH 6.0, 9 °C; 50 μM RNA, 100 μM compound
[2] = system: FAM-r(CUG)10-BHQ (RNA, repeat) CCGCUGCUGCUGCUGCUGCUGCUGCUGCUGCUGCGG; test: differential scanning fluorimetry (FAM-BHQ); settings: Na+ (20 mM sodium phosphate), pH 7.4, 500 nM RNA
[3] = no measurable shift at 100 μM compound

Row | Structure (SMILES) | IC50 (r(CUG)12–MBNL1 complex) | effect on MBNL1 protein expression levels (MBNL1 protein expression) | binding [1] | binding ([2]; dose-dependent shift) | disruption of r(CUG)12–MBNL1 complex (r(CUG)12–MBNL1 complex) | ΔTm ([2]; compound concentration of the shift not given) | binding [2, 3]
1 | Cc1cn2nc(C(=O)NCc3ccc(C(F)(F)F)cc3)cc2c(N2CCCC2)n1 [A4] | 22 ± 1 µM | without affecting | yes | yes | – | – | –
2 | Cc1ccc(CCNC(=O)c2cc3c(N4CCSCC4)nc(C)cn3n2)cc1 [B4] | > 50 µM | – | yes | yes | – | – | –
3 | Cc1cn2nc(C(=O)NCc3ccc(Cl)cc3)cc2c(N2CCCC2)n1 [A3] | > 50 µM | – | yes | yes | – | – | –
4 | COc1ccc(CCNC(=O)c2cc3c(N4CCCC4)nc(C)cn3n2)cc1OC [A6] | 18 ± 2 µM | without affecting | yes | – | ~100% | 1.2 °C | –
5 | Cc1cn2nc(C(=O)NCCc3ccccc3)cc2c(N2CCCC2)n1 [A5] | > 50 µM | – | yes | yes | – | – | –
6 | COc1ccc(CNC(=O)c2cc3c(N4CCSCC4)nc(C)cn3n2)cc1 [B3] | > 50 µM | without affecting | yes | yes | – | – | –
7 | Cc1ccc(CNC(=O)c2cc3c(N4CCCC4)nc(C)cn3n2)cc1 [A1] | 14 ± 3 µM | – | yes | yes | ~100% | – | –
8 | CCc1ccc(CNC(=O)c2cc3c(N4CCCC4)nc(C)cn3n2)cc1 [A2] | 25 ± 1 µM | without affecting | yes | yes | – | – | –
9 | Cc1ccc(CNC(=O)c2cc3c(N4CCSCC4)nc(C)cn3n2)cc1 [B1] | > 50 µM | without affecting | weak | – | – | – | no
10 | COc1ccccc1CNC(=O)c1cc2c(N3CCSCC3)nc(C)cn2n1 [B2] | > 50 µM | without affecting | weak | – | – | – | no
